Results on one compound are retold here after patent publication US20140289906A1, “Compositions Having Dicamba Decarboxylase Activity and Methods of Use” (priority 2013, published 2014).

This series deals with Arabidopsis ecotype Columbia (Col-0). Briefly: Arabidopsis root growth inhibition assay. To be noted: 6 days. As for the experimental part:
Phytotoxicity of other major dicamba decarboxylaed products was evaluated using Arabidopsis root growth inhibition assay. 4-chloro-3-methoxy phenol was purchased from Biogene Organics, Inc. (catalog number U06-642-79). 2,5-dichloro phenol was purchased from Sigma-Aldrich (catalog number D70007). Briefly, seeds of Arabidopsis ecotype Columbia (Col-0) were surface sterilized with 70% (v/v) ethanol for 5 minutes and 10% (v/v) bleach for 15 minutes. After being washed three times with distilled water, the seeds were germinated on 1× Murashige and Skoog (MS) medium with a pH of 5.7, 3% (w/v) sucrose, and 0.8% (w/v) agar. After incubation for 3.5 days, the seedlings were transferred to 1×MS medium containing B5 vitamin, 3% (w/v) sucrose, 1.2% (w/v) agar, and filter sterilized compounds was added to the media at 60° C. The concentrations of compounds including dicamba were 0 μM, 1.0 μM, and 10 μM. The seedlings were placed vertically, and the temperature maintained at 23° C. to allow root growth along the surface of the agar, with a photoperiod of 16 h of light and 8 h of dark.

Turning to `Oc1cc(Cl)ccc1Cl` [2,5-dichloro phenol], the Arabidopsis root growth entry is “did not have any effect” (1.0 uM in MS medium) and “did not have any effect” (10 uM in MS medium).
